One may read the Ki as a dissociation constant, usually derived from enzyme kinetics or from competition with a known ligand. Lower therefore signals higher affinity.

Results on 12 molecules are retold here after BindingDB's records for doi:10.1007/pl00005197 (Novartis Pharma, 1998).

“And” between values parts separate entries of the source, which are not always exact repeats. Equal values may be shown once. Numbered stars: 1 amine (or outer) side, 2 acyl side, 3 side chain; on linkers, the order of the positions; unused ones are H or OH. Bridge positions count the residues as written; N and C are the ends. Square brackets hold non-standard residues; d marks the D form. Peptide text beside a SMILES is read from it. * marks the point of attachment. d1Nal = N[C@H](Cc1cccc2ccccc12)C(=O)O; Asu = N[C@@H](CCCCCC(=O)O)C(=O)O; X1 = O=C(C(N[*:1])S[*:3])[*:2]; Ahp = NCCCCCCC(=O)O; Bn = c1ccc(C*)cc1; Mpa = O=C(O)CCS

Assay [1] concerns the target Somatostatin receptor type 2 (Homo sapiens, UniProt P30874).
The target of assay [2] is Somatostatin receptor type 5 (Homo sapiens, UniProt P35346).
Assay [3] concerns the target Somatostatin receptor type 4 (Homo sapiens, UniProt P31391).
Assay [4] has as its target Somatostatin receptor type 3 (Homo sapiens, UniProt P32745).
In assay [5] the target is Somatostatin receptor type 1 (Homo sapiens, UniProt P30872).
Sequence of Somatostatin receptor type 1 (P30872 whole entry): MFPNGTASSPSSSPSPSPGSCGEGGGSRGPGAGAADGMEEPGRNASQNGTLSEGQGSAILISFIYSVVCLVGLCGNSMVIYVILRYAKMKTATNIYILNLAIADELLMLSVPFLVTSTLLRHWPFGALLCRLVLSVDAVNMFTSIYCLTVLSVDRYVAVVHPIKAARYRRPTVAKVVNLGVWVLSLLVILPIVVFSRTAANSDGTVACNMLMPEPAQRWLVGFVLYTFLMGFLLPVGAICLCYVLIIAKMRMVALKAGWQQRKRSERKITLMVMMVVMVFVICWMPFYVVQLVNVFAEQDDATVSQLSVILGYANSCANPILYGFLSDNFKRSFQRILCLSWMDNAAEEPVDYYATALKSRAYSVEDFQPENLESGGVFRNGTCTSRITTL

Sequence of Somatostatin receptor type 3 (P32745 whole entry): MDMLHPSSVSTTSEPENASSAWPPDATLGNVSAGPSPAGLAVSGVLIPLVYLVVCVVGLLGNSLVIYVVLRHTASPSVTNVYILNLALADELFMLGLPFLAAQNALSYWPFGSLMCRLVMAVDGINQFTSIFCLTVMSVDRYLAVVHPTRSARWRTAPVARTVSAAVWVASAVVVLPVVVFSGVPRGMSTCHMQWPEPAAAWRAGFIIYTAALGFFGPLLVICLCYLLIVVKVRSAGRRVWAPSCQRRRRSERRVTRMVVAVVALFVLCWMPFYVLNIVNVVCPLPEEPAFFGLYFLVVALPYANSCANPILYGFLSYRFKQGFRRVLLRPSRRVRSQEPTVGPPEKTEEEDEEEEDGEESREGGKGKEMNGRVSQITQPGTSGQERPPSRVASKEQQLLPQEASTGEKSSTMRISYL
Sequence of Somatostatin receptor type 2 (P30874 whole entry): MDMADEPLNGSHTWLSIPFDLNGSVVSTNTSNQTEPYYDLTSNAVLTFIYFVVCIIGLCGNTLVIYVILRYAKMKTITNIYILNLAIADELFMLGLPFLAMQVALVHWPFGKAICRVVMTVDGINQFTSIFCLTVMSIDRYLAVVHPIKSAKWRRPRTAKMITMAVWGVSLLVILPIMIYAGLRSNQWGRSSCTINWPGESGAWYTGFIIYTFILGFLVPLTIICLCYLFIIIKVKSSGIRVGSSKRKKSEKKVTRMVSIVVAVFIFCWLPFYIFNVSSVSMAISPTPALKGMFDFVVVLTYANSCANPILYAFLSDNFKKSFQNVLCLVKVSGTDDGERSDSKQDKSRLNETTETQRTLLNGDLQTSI
Sequence of Somatostatin receptor type 5 (P35346 whole entry): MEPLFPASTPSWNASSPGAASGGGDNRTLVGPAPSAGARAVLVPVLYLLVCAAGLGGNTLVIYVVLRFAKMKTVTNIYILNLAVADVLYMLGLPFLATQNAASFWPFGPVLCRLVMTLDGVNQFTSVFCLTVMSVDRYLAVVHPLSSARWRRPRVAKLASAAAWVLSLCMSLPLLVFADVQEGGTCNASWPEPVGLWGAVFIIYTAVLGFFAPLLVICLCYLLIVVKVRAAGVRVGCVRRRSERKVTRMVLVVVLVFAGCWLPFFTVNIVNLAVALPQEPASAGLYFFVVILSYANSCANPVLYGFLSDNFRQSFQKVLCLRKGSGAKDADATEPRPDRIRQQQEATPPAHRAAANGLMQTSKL
Sequence of Somatostatin receptor type 4 (P31391 whole entry): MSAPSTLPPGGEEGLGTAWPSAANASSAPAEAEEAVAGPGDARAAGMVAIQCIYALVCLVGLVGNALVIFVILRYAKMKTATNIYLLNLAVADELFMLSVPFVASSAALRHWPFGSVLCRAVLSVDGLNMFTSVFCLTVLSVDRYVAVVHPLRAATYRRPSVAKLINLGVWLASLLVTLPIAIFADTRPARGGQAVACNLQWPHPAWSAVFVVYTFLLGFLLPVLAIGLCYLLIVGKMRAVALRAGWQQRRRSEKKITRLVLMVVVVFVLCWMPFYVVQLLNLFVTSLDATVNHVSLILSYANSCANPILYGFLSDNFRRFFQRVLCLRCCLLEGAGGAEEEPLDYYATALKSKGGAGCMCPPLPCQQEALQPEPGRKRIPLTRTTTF

Consider `C[C@@H](O)[C@@H]1NC(=O)[C@H](CCCCN)NC(=O)[C@H](Cc2c[nH]c3ccccc23)NC(=O)[C@H](Cc2ccccc2)NC(=O)[C@H](Cc2ccccc2)NC(=O)[C@H](CC(N)=O)NC(=O)[C@H](CCCCN)NC(=O)[C@@H](NC(=O)[C@@H]2CCCN2)CSSC[C@@H](C(=O)N[C@@H](CCCCN)C(=O)O)NC(=O)[C@H](CO)NC(=O)[C@H](CO)NC(=O)[C@H](Cc2ccccc2)NC1=O` [Cortistatin(1-14)] (H-PCKNFFWKTFSSCK-OH; disulfide 2-13), for which the Ki in assay [1] was 0.00288 µM; in assay [2] it was 0.00398 µM; in assay [3], 0.00174 µM and 0.00178 µM; in assay [4], 0.00087 µM and 0.00074 µM.

For `C[C@@H](OCc1ccccc1)[C@@H]1NC(=O)[C@H](CCCCN)NC(=O)[C@@H](Cc2c[nH]c3ccccc23)NC(=O)[C@H](Cc2ccccc2)NC(=O)CCCCCCNC1=O` [c[Aha-Phe-D-Trp-Lys-Thr(Bzl)]] (cyclo([Ahp]F[dW]KT(Bn))), the Ki in assay [1] is 1.82 µM; in assay [2] it was 0.955 µM; in assay [3], 0.331 µM and 0.851 µM; in assay [4] it was 0.589 µM and 0.0832 µM; in assay [5], 0.0955 µM and 0.158 µM.

Turning to `C[C@@H](O)[C@@H]1NC(=O)[C@H](CCCCN)NC(=O)[C@@H](Cc2c[nH]c3ccccc23)NC(=O)[C@H](Cc2c[nH]c3ccccc23)NC(=O)[C@H](Cc2ccccc2)NC(=O)CCCCCCNC(=O)[C@H](Cc2ccccc2)NC1=O` [L-362855] (cyclo([Ahp]FW[dW]KTF)), the inhibitory constant (Ki) in assay [3] was 0.049 µM and 0.174 µM; in assay [4], 0.024 µM and 0.00562 µM; in assay [5], 0.562 µM and 0.501 µM.

On to `CC(C)[C@@H]1NC(=O)[C@H](CCCCN)NC(=O)[C@@H](Cc2c[nH]c3ccccc23)NC(=O)[C@H](Cc2ccc(O)cc2)NC(=O)CCSSC(C(=O)N[C@@H](Cc2ccccc2)C(N)=O)NC1=O` (stereo not given in full) [CAS_117580-24-2] ([Mpa]Y[dW]KV[X1]F-NH2; disulfide 1-6), for which the Ki in assay [1] is 0.0219 µM; in assay [2] it was 2.75 µM; in assay [3], 1.05 µM and 2.75 µM; in assay [4], 0.0676 µM and 0.0141 µM; in assay [5], 8.71 µM and > 10 µM.

Regarding `C[C@@H](O)[C@H](NC(=O)[C@H](Cc1ccccc1)NC(=O)[C@@H](NC(=O)[C@H](CCCCN)NC(=O)[C@@H](Cc1c[nH]c2ccccc12)NC(=O)[C@H](Cc1ccccc1)NC(=O)[C@H](Cc1ccccc1)NC(=O)[C@H](N)Cc1ccccc1)[C@@H](C)O)C(N)=O` [CAS_133073-82-2] (H-[dF]FF[dW]KTFT-NH2), the Ki in assay [1] was 0.00316 µM; in assay [2], 0.0355 µM; in assay [3], 0.00234 µM and 0.00631 µM; in assay [5], 0.00427 µM and 0.0024 µM.

With `CC(C)[C@H](NC(=O)[C@H](CCCCN)NC(=O)[C@@H](Cc1c[nH]c2ccccc12)NC(=O)[C@H](Cc1ccc(O)cc1)NC(=O)[C@H](Cc1ccccc1)NC(=O)[C@H](N)Cc1ccccc1)C(=O)N[C@@H](Cc1ccccc1)C(=O)N[C@H](Cc1cccc2ccccc12)C(N)=O` [BIM 23056] (H-[dF]FY[dW]KVF[d1Nal]-NH2), the Ki was 0.589 µM in assay [1]; 0.209 µM in assay [2]; 0.0676 µM and 0.339 µM in assay [3]; 0.126 µM and 0.0832 µM in assay [4]; 0.245 µM and 0.347 µM in assay [5].

As to `C[C@@H](O)[C@@H]1NC(=O)[C@H](Cc2ccc(O)cc2)NC(=O)[C@H]([C@@H](C)O)NC(=O)[C@H](CCCCN)NC(=O)[C@H](Cc2c[nH]c3ccccc23)NC(=O)[C@H](Cc2ccccc2)NC(=O)[C@H](Cc2ccccc2)NC(=O)[C@H](CC(N)=O)NC(=O)[C@H](CCCCN)NC(=O)CCCCC[C@@H](C(=O)O)NC(=O)[C@H](CO)NC1=O` [CGP-23996] (KNFFWKTYTS[Asu]-OH; lactam N-11), the Ki in assay [1] is 0.00115 µM; in assay [2] it was 0.214 µM; in assay [3] it was 0.0017 µM and 0.00214 µM; in assay [4] it was 0.00151 µM and 0.00052 µM; in assay [5] it was 0.00468 µM and 0.0049 µM.

Regarding `C[C@@H](O)[C@@H]1NC(=O)[C@H](CCCCN)NC(=O)[C@@H](Cc2c[nH]c3ccccc23)NC(=O)[C@H](Cc2ccccc2)NC(=O)[C@@H]2CCCN2C(=O)[C@H](Cc2ccccc2)NC1=O` (cyclo(PF[dW]KTF)), the inhibitory constant (Ki) in assay [1] is 0.00339 µM; in assay [2], 0.0676 µM; in assay [3] it was 2.45 µM and 8.71 µM; in assay [4], 0.457 µM and 0.148 µM; in assay [5] it was 4.79 µM and 4.17 µM.

As for `CC(C)[C@@H]1NC(=O)[C@H](CCCCN)NC(=O)[C@@H](Cc2c[nH]c3ccccc23)NC(=O)[C@H](Cc2ccc(O)cc2)NC(=O)[C@@H](NC(=O)[C@H](N)Cc2ccccc2)CSSC[C@@H](C(=O)N[C@@H](Cc2c[nH]c3ccccc23)C(N)=O)NC1=O` [CAS_71306] (H-[dF]CY[dW]KVCW-NH2; disulfide 2-7), the Ki in assay [1] is 0.00045 µM and 0.00025 µM; in assay [3], 0.0562 µM and 0.275 µM; in assay [4], 0.0427 µM and 0.0123 µM; in assay [5], 0.0832 µM and 0.11 µM.

For `CC(C)[C@@H]1NC(=O)[C@H](CCCCN)NC(=O)[C@@H](Cc2c[nH]c3ccccc23)NC(=O)[C@H](Cc2ccc(O)cc2)NC(=O)[C@H](C)N(C)C(=O)[C@H](Cc2ccccc2)NC1=O` [seglitide], the values for the Ki in assay [2] and in assay [5] were 0.00072 µM and over 10 µM, respectively.

Take `CC(C)[C@@H]1NC(=O)[C@H](CCCCN)NC(=O)[C@@H](Cc2c[nH]c3ccccc23)NC(=O)[C@H](Cc2ccc(O)cc2)NC(=O)[C@@H](NC(=O)[C@H](N)Cc2ccc3ccccc3c2)CSSC[C@@H](C(=O)N[C@H](C(N)=O)[C@@H](C)O)NC1=O` [3-(2-Naphtyl)-D-Ala-L-Cys(1)-L-Tyr-D-Trp-L-Lys-L-Val-L-Cys(1)-L-Thr-NH2]: the Ki was 0.00054 µM and 0.00055 µM in assay [1]; 0.0138 µM and 0.00955 µM in assay [4]; 0.219 µM in assay [5].

`CSCC[C@H](NC(=O)[C@H](CCCN=C(N)N)NC(=O)[C@@H](N)CC(=O)O)C(=O)N1CCC[C@H]1C(=O)N[C@H]1CSSC[C@@H](C(=O)N[C@@H](CCCCN)C(=O)O)NC(=O)[C@H](CO)NC(=O)[C@H](CO)NC(=O)[C@H](Cc2ccccc2)NC(=O)[C@H]([C@@H](C)O)NC(=O)[C@H](CCCCN)NC(=O)[C@H](Cc2c[nH]c3ccccc23)NC(=O)[C@H](Cc2ccccc2)NC(=O)[C@H](Cc2ccccc2)NC(=O)[C@H](CC(N)=O)NC(=O)[C@H](CCCN=C(N)N)NC1=O` [Cortistatin]: the Ki was 0.00085 µM and 0.00051 µM in assay [1]; 0.00029 µM and 0.00043 µM in assay [2]; 0.00058 µM and 0.00028 µM in assay [3]; 0.00037 µM and 0.0003 µM in assay [4]; 0.00025 µM in assay [5].
